This is an account of results in patent publication US6838580B2, “Opioid derivative” (Teikoku Seiyaku Co., Ltd., priority 2002, dated 2005).

Experiment [1] has as its target T1, μ-opioid receptor (Rattus norvegicus, UniProt P33535).
T1 construct: synaptic membrane fraction obtained from the rat brain tissue; from tissue; host or cells: Sprague-Dawley rat brain without cerebellum, synaptic membrane (P2) fraction
Description: Competitive receptor binding assay, synaptic membrane fraction, [3H]DAGO. The note with it: for Ki: rat brain synaptic membrane, [3H]DAGO, read-out: Affinity of receptor (Ki, nM) μ; for Selectivity δ/μ: ratio Ki δ / Ki μ. As to the method:
(§1) Regarding the opioid peptide derivatives synthesized in Examples and Reference Examples, the μ- and δ-opioid receptor affinities were obtained by a competitive receptor assay using the synaptic membrane fraction obtained from the rat brain tissue according to the known methods. That is, Sprague-Dawley rats having an average weight of 150-180 g were killed by decapitation, the brain tissue from which cerebellum had been removed was homogenized in 0.32M sucrose and 1 mM HEPES (pH 7.5) containing 50 μg/ml soybean trypsin inhibitor, fractionated and centrifuged to obtain the synaptic membrane fraction (P2 fraction), which was pre-incubated in 50 mM HEPES (pH 7.5) containing 100 mM NaCl, 0.1 mM GDP and soybean trypsin inhibitor to remove endogenous ligands from the P2 fraction.
(§2) A competitive receptor binding assay (Radiolabeled receptor assay: RRA) based on an exchange reaction between a radioactive ligand for the synaptic membrane fraction and a peptide derivative to be tested was performed by using tritium-labeled [^3H]DAGO which is a μ-opioid receptor agonist and tritium-labeled [^3H]DPDPE which has the high δ-opioid receptor selectivity, and incubating an aliquot of the synaptic membrane with the peptide derivative to be tested for a period of time. Upon this, an exchange reaction between a ligand was performed under constant conditions, the radiation remaining in the synaptic membrane fraction was measured, and an amount of the ligand adsorbed onto the synaptic membrane fraction is calculated. By assuming that binding with a receptor occurs in competition between a radioactive ligand and an end ligand, the concentration (IC50) at which the maximum specific binding of the radioactive ligand is 50% inhibited was obtained, from which the affinity constant (Ki) was calculated by a method of Cheng et al. (Biochem. Pharmcol., 22, 3099(1973)).

For the next experiment, the target named is T2, δ-opioid receptor (Rattus norvegicus, UniProt P33533).
T2 construct: synaptic membrane fraction obtained from the rat brain tissue; from tissue; host or cells: Sprague-Dawley rat brain without cerebellum, synaptic membrane (P2) fraction
T2 sequence (P33533 whole entry): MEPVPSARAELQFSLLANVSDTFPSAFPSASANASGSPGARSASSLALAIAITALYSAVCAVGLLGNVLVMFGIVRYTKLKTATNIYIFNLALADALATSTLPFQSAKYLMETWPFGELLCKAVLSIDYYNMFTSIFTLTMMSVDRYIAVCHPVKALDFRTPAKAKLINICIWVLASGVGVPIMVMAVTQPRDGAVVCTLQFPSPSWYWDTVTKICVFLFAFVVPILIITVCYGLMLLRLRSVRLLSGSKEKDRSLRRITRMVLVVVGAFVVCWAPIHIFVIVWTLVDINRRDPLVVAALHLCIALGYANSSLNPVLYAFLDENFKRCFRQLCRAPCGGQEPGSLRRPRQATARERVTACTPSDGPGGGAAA
Description: Competitive receptor binding assay, synaptic membrane fraction, [3H]DPDPE. The note with it: rat brain synaptic membrane, read-out: Affinity of receptor (Ki, nM) δ. The procedure:
as §1, §2

Experiment [2] addresses μ-opioid receptor (Cavia porcellus, UniProt A0ACM8Q262). Kind of experiment: Guinea pig ileum (GPI) assay, inhibition of electrically stimulated constriction. It counts as cell-based. The note with it: agonist activity, read-out: GPI (IC50 ± S.E.). As to the method:
An assay test for agonist and antagonist activities of opioid compounds was performed using guinea pig ileum (GPI) and mouse seminiferous tract (MVD). That is, male guinea pigs having the weight of around 300 g were killed by exsanguination, an ileum section having a length of around 10 cm was isolated from an ileum close to an ileum-caecum region was held at 36° C. The ileum section was placed in a Magnus tube treated with an oxygen mixture (95% O2/5% CO2) and filled with Krebs solution in the state where the rest tension of 1 g was applied with an isotonic transducer and, then, was performed. Then, the electrical stimulation was applied at 30V for 0.5 ms. via electrode previously installed in the Magnus tube to constrict guinea pig ileum longitudinal muscle and, after constriction was stabilized, a peptidase inhibitor was added. Then, the present peptide derivative to be tested was added, the constriction of guinea pig ileum longitudinal muscle was taken by GrassFTO 0.3 transducer and monitored by an amplifier and a recorder connected to the transducer. The opioid activity was determined by constriction inhibition after addition of the peptide derivative to be tested and constriction inhibition cancellation by addition of naloxone, a selective opioid antagonist. […]

T1 sequence (P33535 whole entry): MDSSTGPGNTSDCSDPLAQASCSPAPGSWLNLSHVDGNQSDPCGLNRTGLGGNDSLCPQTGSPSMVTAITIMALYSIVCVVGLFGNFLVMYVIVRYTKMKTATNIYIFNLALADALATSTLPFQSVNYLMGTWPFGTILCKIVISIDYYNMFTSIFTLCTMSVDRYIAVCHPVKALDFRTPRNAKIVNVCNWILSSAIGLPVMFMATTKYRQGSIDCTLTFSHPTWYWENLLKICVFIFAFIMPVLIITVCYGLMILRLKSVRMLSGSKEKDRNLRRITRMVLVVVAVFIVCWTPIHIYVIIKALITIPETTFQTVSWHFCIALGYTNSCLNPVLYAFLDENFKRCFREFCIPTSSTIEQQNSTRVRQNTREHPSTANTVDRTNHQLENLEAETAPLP
μ-opioid receptor (Cavia porcellus, UniProt A0ACM8Q262), sequence (A0ACM8Q262 1-400): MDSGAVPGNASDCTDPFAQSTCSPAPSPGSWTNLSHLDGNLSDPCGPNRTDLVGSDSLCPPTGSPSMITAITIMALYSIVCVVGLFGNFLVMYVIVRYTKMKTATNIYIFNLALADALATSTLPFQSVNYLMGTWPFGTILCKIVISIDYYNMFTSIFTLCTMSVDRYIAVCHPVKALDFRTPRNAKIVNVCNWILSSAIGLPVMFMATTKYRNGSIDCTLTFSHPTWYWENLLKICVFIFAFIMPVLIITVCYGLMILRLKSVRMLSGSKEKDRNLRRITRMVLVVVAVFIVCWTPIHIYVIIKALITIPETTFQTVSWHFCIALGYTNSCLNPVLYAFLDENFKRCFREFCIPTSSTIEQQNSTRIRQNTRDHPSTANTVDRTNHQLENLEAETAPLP

The term Ki denotes a measure of affinity in units of concentration, obtained from inhibition or displacement. Take `Cc1cc(O)cc(C)c1C[C@H](N)C(=O)NCCCCCCNC(=O)[C@@H](N)Cc1c(C)cc(O)cc1C` [Ex.4, 1,6-Bis(Dmt-amino)hexane.2HCl]: at μ-opioid receptor [1], the inhibitory constant (Ki) is 0.053 ± 0.01 nM and the “Selectivity δ/μ” value is 870. The Ki at δ-opioid receptor was found to be 46.1 ± 8.8 nM.
The term IC50 denotes the concentration that gives 50% inhibition. Turning to `Cc1cc(O)cc(C)c1C[C@H](N)C(=O)NCCCCNC(=O)[C@@H](N)Cc1c(C)cc(O)cc1C.Cl.Cl` [Ex.1, 1,4-Bis-(Dmt-amino)butane.2HCl], on μ-opioid receptor [2], the IC50 was 5.33 ± 0.65 nM. In addition, the Ki on μ-opioid receptor [1] amounted to 0.041 ± 0.003 nM; at δ-opioid receptor it was 53.4 ± 14.8 nM. Moreover, the “Selectivity δ/μ” value at μ-opioid receptor [1] is listed as 1300.
